US8435752B2, “Gene polymorphisms predictive for dual TKI therapy” (University of Southern California, priority 2007, dated 2013)
Where two headings read alike, the source gives them in different places.

System: advanced or metastatic gastric cancer patients
Conditions: for median OS: Experiment No. 1, p=0.07; for OS / response rates: Experiment No. 2; for OS: p=0.04; for response rates: p<0.01

CS(=O)(=O)CCNCc1ccc(-c2ccc3ncnc(Nc4ccc(OCc5cccc(F)c5)c(Cl)c4)c3c2)o1 [lapatinib, Lapatinib]
median OS (A/A genotype of IL-8 T251A polymorphism, blood samples from 40 patients): 10 months | median OS (first listed of the other 2 genotypes of IL-8 T251A): 3 months | median OS (second listed of the other 2 genotypes of IL-8 T251A): 3 months | OS (IL-8 T251A A/A, blood samples from 42 patients): 10 months | OS (IL-8 T251A T/A): 5 months | OS (IL-8 T251A T/T): 3 months | response rates (patients with A allele of IL-8 T251A): better response rates | response rates (patients with T allele of VEGF C936T): better response rates | median overall survival (OS) (comparison group to higher HER2 gene expression (lower HER2), p=0.005): 3 months | median overall survival (OS) (comparison group to lower IL-8 gene expression (higher IL-8), p=0.03): 3 months | median overall survival (OS) (patients with higher intratumoral HER2 gene expression, p=0.005 vs lower): 6 months | median overall survival (OS) (patients with lower intratumoral IL-8 gene expression, p=0.03 vs higher): 6 months
